Reference: US7951905B2, “Synthesis of carbohydrate-templated amino acids and methods of using same” (University of Manitoba, priority 2006, dated 2011)

Columns and labels:
[1] = Trans/cis ratio (Kt/c) of prolyl amide isomers by 500 MHz NMR; format: physicochemical
Protocol: For each of 11-13, the ratio of trans/cis isomers was calculated by integrating as many well-resolved peaks as possible for each isomer, and taking the average of over all peaks for respective isomers (Taylor et al., 2003). The assignment of N-terminal amide geometry for both major and minor isomers of 11-16 was based on multiple GOESY experiments (Stronehouse et al., 1994).
Experiments were undertaken to determine the Kt/c effect of certain fused bicyclic sugar-proline-containing peptides. A very similar profile of Kt/c for the Ac-Gly-GlcPro-NHMe model compounds 14-16 compared to the Ac-GlcPro-NHMe model compounds 11-13 (Table 1) was observed. In CD3OD, there was an increase in the cis-content as the sugar substituent changed from benzyl 14 (<3%), to hydroxyl 15 (15%), to acetate 16 (25%).

[2] = D2O; n.s. = not soluble (footnote b)

Row | SMILES | % cis isomer ([1]; CD3OD, 500 MHz NMR at 25° C.) [%] | Trans/cis ratio (Kt/c) ([1]; CD3OD, 500 MHz NMR at 25° C.) | % cis isomer ([1]; D2O, 500 MHz NMR at 25° C.) [%] | Trans/cis ratio (Kt/c) ([1]; D2O, 500 MHz NMR at 25° C.) | % cis isomer ([1]; CDCl3, 500 MHz NMR at 25° C.) [%] | Trans/cis ratio (Kt/c) ([1]; CDCl3, 500 MHz NMR at 25° C.) | solubility in solvent [2]
1 | CNC(=O)[C@@H]1C[C@H]2O[C@H](CO)[C@H](O)[C@@H](O)[C@@H]2N1C(=O)CNC(C)=O [Compound 15, N-Acetyl-glycyl-(2S,3aR,5R,6R,7S,7aS)-6,7-dihydroxy-5-(hydroxymethyl)-octahydro-pyrano[3,2-b]pyrrole-2-carboxamide N′-methylamide] | 15 | 5.7 | 10 | 9 | – | – | –
2 | CNC(=O)[C@@H]1C[C@H]2O[C@H](COC(C)=O)[C@H](OC(C)=O)[C@@H](OC(C)=O)[C@H]2N1C(=O)CNC(C)=O [Compound 16, N-Acetyl-glycyl-(2S,3aR,5R,6R,7S,7aS)-6,7-di-O-acetyl-5-(hydroxymethyl-O-acetyl)-octahydro-pyrano[3,2-b]pyrrole-2-carboxamide N′-methylamide] | 25 | 3 | – | – | 20 | 4 | –
3 | CNC(=O)[C@@H]1C[C@H]2O[C@H](COCc3ccccc3)[C@H](OCc3ccccc3)[C@@H](OCc3ccccc3)[C@H]2N1C(=O)CNC(C)=O [Compound 14, N-Acetyl-glycyl-(2S,3aR,5R,6R,7S,7aS)-6,7-di-O-benzyl-octahydro-5-(phenylmethyl hydroxymethyl)-pyrano[3,2-b]pyrrole-2-carboxamide N′-methylamide] | < 3 | > 30 | – | – | 5 | 19 | n.s.^[b]
